{"source": "BindingDB's records for patent US10010539", "about": "(Merck Sharp & Dohme, 2018)", "target": "T1, Orexin receptor type 2 (Homo sapiens, UniProt O43614)", "T1 sequence (O43614 whole entry)": "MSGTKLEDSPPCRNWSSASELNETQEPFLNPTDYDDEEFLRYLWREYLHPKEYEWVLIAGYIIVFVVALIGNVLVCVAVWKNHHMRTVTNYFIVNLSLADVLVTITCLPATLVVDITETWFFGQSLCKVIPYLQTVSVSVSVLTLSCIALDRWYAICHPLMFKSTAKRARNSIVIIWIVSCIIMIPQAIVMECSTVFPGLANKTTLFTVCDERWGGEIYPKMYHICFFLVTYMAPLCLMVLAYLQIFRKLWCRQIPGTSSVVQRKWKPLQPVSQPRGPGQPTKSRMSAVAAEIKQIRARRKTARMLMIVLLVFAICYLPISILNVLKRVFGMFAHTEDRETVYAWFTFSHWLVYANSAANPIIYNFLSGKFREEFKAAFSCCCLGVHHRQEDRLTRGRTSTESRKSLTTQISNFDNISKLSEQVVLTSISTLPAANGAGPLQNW", "experiment": "FLIPR Ca2+ Flux Assay", "experimental": "For intracellular calcium measurements, Chinese hamster ovary (CHO) cells expressing the rat orexin-1 receptor or the human orexin-2 receptor, are grown in Iscove's modified DMEM containing 2 mM L-glutamine, […], 1% hypoxanthine-thymidine supplement, 100 U/ml penicillin, 100 μg/ml streptomycin and 10% heat-inactivated fetal calf serum (FCS). The cells are seeded at 20,000 cells/well into Becton-Dickinson black 384-well clear bottom sterile plates coated with poly-D-lysine. All reagents were from GIBCO-Invitrogen Corp. The seeded plates are incubated overnight at 37° C. and 5% CO2. Ala-6,12 human orexin-A as the agonist is prepared as a 1 mM stock solution in 1% bovine serum albumin (BSA) and diluted in assay buffer (HBSS containing 20 mM HEPES, 0.1% BSA and 2.5 mM probenecid, pH7.4) for use in the assay at a final concentration of 70 pM. […] Within the Fluorescent Imaging Plate Reader (FLIPR, Molecular Devices), test compounds are added to the plate in a volume of 25 μl, incubated for 5 min and finally 25 μl of agonist is added. Fluorescence is measured for each well at 1 second intervals for 5 minutes and the height of each fluorescence peak is compared to the height of the fluorescence peak induced by 70 pM Ala-6,12 orexin-A with buffer in place of antagonist.", "data": [{"smiles": "CCOc1ccccc1C(=O)N1C[C@H](n2ncc(C(C)(C)O)n2)CC[C@H]1C", "note": "[US10010539, 12]", "values": [{"measurement": "IC50", "value": 31.3, "unit": "nM"}]}, {"smiles": "CC(C)Oc1ncccc1C(=O)N1C[C@H](n2ncc(C(C)(C)O)n2)CC[C@H]1C", "note": "[US10010539, 15]", "values": [{"measurement": "IC50", "value": 32.6, "unit": "nM"}]}]}
